From patent US12599673B2, “Techniques for enhancing the selectivity and efficacy of antimicrobial and anticancer polymer agents” (International Business Machines Corporation, priority 2018, dated 2026)

Columns and labels:
P. aeruginosa = assay: Minimal inhibitory concentration toward P. aeruginosa; assay type: cell-based, Pseudomonas aeruginosa
Description: FIG. 15A presents a Graph 1500 illustrating the antimicrobial selectivity and efficacy of example therapeutic polymers and coacervate complexes against P. aeruginosa in accordance with various embodiments described herein. […] The tested efficacy is based on their respective minimal inhibitory concentrations (MICs) toward P. aeruginosa. […] The commercial standard antibiotic Polymyxin B sulfate (PolyB) and Complex X were also tested for selectivity and efficacy/toxicity for comparison. Complex X is used herein to refer to a coacervate complex formed with Polymer A in combination with PolyB (as opposed to Polymer A and the disclosed therapeutic polyguanidinium based Polymers). FIG. 15B provides a corresponding Table 1501 for Graph 1500. In addition to the MIC and HC50 values reflected in Graph 1500, Table 1501 also identifies the […] (SI) of the respective polymers and corresponding coacervate complexes. Repetitive description of like elements employed in respective embodiments is omitted for sake of brevity.

[1] = tested on: THP-1 cells (a human monocytic cell line); assay: Biocompatibility/toxicity with THP-1 cells (cell viability); assay type: cell-based
Description: FIG. 17 presents a Graph 1700 illustrating the biocompatibility/toxicity of various therapeutic polymers and coacervate complexes with mammalian cells in accordance with various embodiments described herein. […] In accordance with the data reflected in Graph 1700, different dosages (e.g., from 2 ppm to 1000 ppm in μg/mL) of the respective polymers and coacervate complexes were incubated with the THP-1 cells for 24 hours at 37° C. The polymers tested include Polymer A, Polymer B, Polymer C, Polymer D, and Polymer E. The coacervates tested include Complex B, Complex C, Complex D, and Complex E. The percent cell viability detected at concentrations less than 63 ppm were substantially the same as those shown for 63 ppm, and thus are not depicted to minimize the complexity of the visualization.

[2] = In vivo toxicity in mice (LD50)
Description: FIGS. 21A and 21B provides tables illustrating the in vivo toxicity and antimicrobial efficacy of coacervate complexes in accordance with various embodiments described herein. […] The data presented in both tables 2101 and 2102 reflect testing using a mouse model.
With reference to FIG. 21 and Table 2101 the in vivo toxicity of different antimicrobials was measured as a function of the lethal dose 50 (LD50) values (which is the amount of antimicrobial that kills 50% of the tested population). […] In fact, the LD50 level of Complex E is so high that is cannot be measured. […] This in-vivo toxicity data is further commensurate with the in vitro toxicity data and in vitro hemolysis data discussed above.

Substance: Polymyxin B sulfate [PolyB]
- MIC toward P. aeruginosa (P. aeruginosa): 0.5 µg/mL
- percent cell viability THP-1 ([1]; 1000 ppm, 24 hours at 37° C): below 20%
- cell viability THP-1 ([1]; about 250 ppm): 50%
- cell viability THP-1 ([1]; about 500 ppm): ~30%
- LD50 [2]: 5.4 mg/kg
